Experimental data: patent publication US20090131317A1, “COMPOUNDS AND PEPTIDES THAT BIND THE TRAIL RECEPTOR” (AFFYMAX, INC., priority 2007, published 2009)
“And” between values parts separate entries of the source, which are not always exact repeats. Identical values can stand only once. Like-named read-outs stand apart in the source and are kept apart here. Numbered stars: 1 amine (or outer) side, 2 acyl side, 3 side chain; on linkers, the order of the positions; unused ones are H or OH. Bridge positions count the residues as written; N and C are the ends. Peptide text beside a SMILES is read from it. I, II: the chains in the order shown. Diglycolyl = O=C(COCC(=O)[*:2])[*:1]

How the values were obtained:
[1] = target: T1, human TRAIL R2 (Homo sapiens, UniProt O14763); assay: AlphaQuest TRAIL R2 receptor binding competition assay (AlphaScreen, biotinylated TRAIL ligand vs TRAIL R2-Fc); conditions: competition with biotinylated TRAIL ligand
T1 construct: purchased R&D Systems, Minneapolis, Minn
Text: Laser excitation (680 nm) of a photosensitizer in the donor bead generates singlet state oxygen molecules, which react with a chemiluminescer in the acceptor bead to generate a detectable light signal (520-620 nm). Because the singlet O2 molecules have an extremely short half-life (i.e., t ½), a signal is generated only when the donor and acceptor beads are brought into close proximity, by TRAIL binding to the R2 receptor. The presence of unlabeled test peptide that competes with TRAIL for binding to the R2 receptor will prevent this binding, resulting in a measurable decrease in light emission.
Recombinant human TRAIL R2-Fc fusion protein (R&D Systems, Minneapolis, Minn.) is diluted in AlphaQuest® buffer to a concentration of 600 pM, pre-mixed with 1.9 μL Protein A-coated acceptor beads and 1.9 μL streptavidin-coated donor beads (Perkin-Elmer®, Waltham, Mass.), then 2 μL is added to each well of the assay plate. […] The plates are sealed with adhesive sealing film and covered with aluminum foil, centrifuged at 600 rpm for 30 seconds and incubated overnight in the dark. […] The raw data are analyzed using GraphPad Prism® software (La Jolla, Calif.) to calculate IC50 values from a 4-parameter logistic equation.

[2] = tested on: HCT-116 cells; format: cell-based
Protocol: The apoptotic activity of test peptides is measured using an HCT-116 proliferation assay. The HCT-116 assay is used to measure the activity of TRAIL R2 agonist peptides using the colon carcinoma cell line HCT-116 (ATCC, Manassas, Va.).
In more detail, a peptide homotrimer based on the peptide monomer sequence of SEQ ID NO: 19 (See, FIG. 8B) is tested for functional activity using the HCT-116 proliferation assay. HCT-116 cells are incubated for one to two days in the presence of serially diluted peptide dimers or peptide trimers. […]
Cell viability is measured using an MTT colorimetric viability assay, a colorimetric assay that analyzes the number of viable cells by measuring the ability of mitochondrial dehydrogenase enzyme in the viable cells to cleave tetrazolium salts added to the culture medium [See, Mosmann (1983) J. Immunol. […] Using this assay, cell proliferation is assessed after 24-48 hours by adding 10 μL of MTT stock solution (ATCC, Manassas, Va.) to the wells. […] After incubation overnight in a 37° C., 5% CO2 incubator, the plates are quantified by reading the optical density at 595 nm (OD595) in a SpectraMax M5 microplate reader (Molecular Devices, Sunnyvale, Calif.). The data are analyzed using GraphPad® Prism software (La Jolla, Calif.) to calculate IC50 values from a 4-parameter logistic equation.

[3] = tested on: Jurkat cells; format: cell-based
Protocol: The apoptotic activity of test peptides is measured using a Jurkat proliferation assay.
Jurkat cells are obtained from the American Type Culture Collection (ATCC, Manassas, Va.) and are maintained in RPMI-1640 medium supplemented with 10% FBS, 100 U/mL penicillin, and 100 […] (Growth Medium). […] Cells are resuspended at a density of 1×10^6 cells/mL in Growth Medium, and 50 μl cells is added to each well of the assay plates. The plates are incubated in a 37° C., 5% CO2 incubator for 24-48 hours. Proliferation is assessed by adding 10 μL of MTT stock solution (ATCC, Manassas, Va.) to the wells. The plates are incubated in a 37° C., 5% CO2 incubator for another 2-4 hours, followed by the addition of 100 μL of 20% SDS with 0.01 N HCl. After incubation overnight in a 37° C., 5% CO2 incubator, the plates are quantified by reading the optical density at a wavelength of 595 nm (OD595) in a SpectraMax® M5 microplate reader (Molecular Devices, Sunnyvale, Calif.). The data are analyzed using GraphPad Prism® software (La Jolla, Calif.) to calculate IC50 values from a 4-parameter logistic equation.

[4] = Apoptotic (functional) activity of peptides of FIG. 5, assay not named; format: cell-based; conditions: FIG. 5, role of the C-terminal leucine

IC50 ([1]; single values and ranges over assays, read-out: binding activity (IC50)) | EC50 [2] | EC50 [3] | IC50 ([1]; single exemplary values and ranges over assays, read-out: binding affinity / binding activity (IC50)) | Compound | apoptotic activity (observed or not) [4]
~7000 nM and 1000 to 56000 nM | ~1620 nM | 945 to 7000 nM | – | CC[C@H](C)[C@@H]1NC(=O)[C@H](CCCNC(=N)N)NC(=O)[C@H](CC(N)=O)NC(=O)[C@H](CC(=O)O)NC(=O)[C@H](CC(C)C)NC(=O)[C@@H](NC(=O)[C@H](CC(=O)O)NC(=O)[C@H](Cc2c[nH]c3ccccc23)NC(C)=O)CSSC[C@@H](C(=O)N[C@H](C(=O)N[C@@H](CCCCNC(=O)COCC(=O)NCCCC[C@H](NC(=O)[C@@H](NC(=O)[C@@H]2CSSC[C@H](NC(=O)[C@H](CC(=O)O)NC(=O)[C@H](Cc3c[nH]c4ccccc34)NC(C)=O)C(=O)N[C@@H](CC(C)C)C(=O)N[C@@H](CC(=O)O)C(=O)N[C@@H](CC(N)=O)C(=O)N[C@@H](CCCNC(=N)N)C(=O)N[C@@H]([C@@H](C)CC)C(=O)NCC(=O)N[C@@H](CCCNC(=N)N)C(=O)N[C@@H](CCCNC(=N)N)C(=O)N[C@@H](CCC(N)=O)C(=O)N2)C(C)C)C(=O)N[C@@H](CC(C)C)C(N)=O)C(=O)N[C@@H](CC(C)C)C(N)=O)C(C)C)NC(=O)[C@H](CCC(N)=O)NC(=O)[C@H](CCCNC(=N)N)NC(=O)[C@H](CCCNC(=N)N)NC(=O)CNC1=O [SEQ ID NO: 19 homodimer] (I: Ac-WDCLDNRIGRRQCVKL-NH2 / II: Ac-WDCLDNRIGRRQCVKL-NH2; disulfide I:3-I:13, II:3-II:13; linker I:15-II:15 via Diglycolyl) | –
– | – | – | – | CC[C@H](C)[C@@H]1NC(=O)[C@H](CCCNC(=N)N)NC(=O)[C@H](CC(N)=O)NC(=O)[C@H](CC(=O)O)NC(=O)[C@H](CC(C)C)NC(=O)[C@@H](NC(=O)[C@H](CC(=O)O)NC(=O)[C@H](Cc2c[nH]c3ccccc23)NC(C)=O)CSSC[C@@H](C(=O)N[C@H](C(=O)N[C@@H](CCCCN)C(N)=O)C(C)C)NC(=O)[C@H](CCC(N)=O)NC(=O)[C@H](CCCNC(=N)N)NC(=O)[C@H](CCCNC(=N)N)NC(=O)CNC1=O [SEQ ID NO: 28 monomer] (Ac-WDCLDNRIGRRQCVK-NH2; disulfide 3-13) | no apoptotic activity is observed
– | – | – | ~49 nM and 15 to 104 nM and 1 to 56 nM | CC[C@H](C)[C@@H]1NC(=O)[C@H](CCCNC(=N)N)NC(=O)[C@H](CC(N)=O)NC(=O)[C@H](CC(=O)O)NC(=O)[C@H](CC(C)C)NC(=O)[C@@H](NC(=O)[C@H](CC(=O)O)NC(=O)[C@H](Cc2c[nH]c3ccccc23)NC(C)=O)CSSC[C@@H](C(=O)N[C@H](C(=O)N[C@@H](CCCCN)C(=O)N[C@@H](CC(C)C)C(N)=O)C(C)C)NC(=O)[C@H](CCC(N)=O)NC(=O)[C@H](CCCNC(=N)N)NC(=O)[C@H](CCCNC(=N)N)NC(=O)CNC1=O [SEQ ID NO: 19 monomer] (Ac-WDCLDNRIGRRQCVKL-NH2; disulfide 3-13) | exhibits apoptotic activity
